Biological target: T1, Dimer of Gag-Pol polyprotein [489-587] (Human immunodeficiency virus 1, UniProt P12497)
T1 construct: 489-587
Test: Protease Inhibition Assay
Method: The inhibitory activities of the compounds toward HIV-1 PR were determined by sodium dodecyl sulfate-polyacrylamide gel electrophoresis (SDS-PAGE) assay. The IC50 values of active compounds were determined using the partially purified protease and the synthetic substrate Ac-Ser-Gln-AsnTyr-Pro-Ile-Val-NH2.

SMILES: CC(C)(C)NC(=O)[C@@H]1C[C@H](Cl)CN1C(=O)[C@@H](O)[C@H](Cc1ccccc1)NC(=O)OC1CCSC1 (stereo partly drawn) [thiolan-3-yl N-[(2S,3S)-4-[(2S,4S)-2-(tert-butylcarbamoyl)-4-chloropyrrolidin-1-yl]-3-hydroxy-4-oxo-1-phenylbutan-2-yl]carbamate]
- IC50: 7.7 nM

Source: BindingDB's records for doi:10.1016/s0968-0896(98)00004-2 (Sankyo, 1998)
